As a reminder, the DC50 is the concentration giving 50% degradation. A high value points to degradation only at high concentration. Broadly, the Dmax is the greatest extent of degradation seen.

This passage reports DC50 and Dmax results from US20250340552A1, “COMPOUNDS, COMPOSITIONS AND METHODS OF TREATING DISORDERS” (HOTSPOT THERAPEUTICS, INC., priority 2022, published 2025).

Like-named read-outs stand apart in the source and are kept apart here.

For the test, the target named is T1, Cbl-B (Homo sapiens, UniProt Q13191).
T1 construct: MSD-Based Assay for Degradation of Cbl-B in THP-1 Cells; endogenous in cells; host or cells: THP-1 (title) / Jurkat (protocol text)
T1 sequence (Q13191 whole entry): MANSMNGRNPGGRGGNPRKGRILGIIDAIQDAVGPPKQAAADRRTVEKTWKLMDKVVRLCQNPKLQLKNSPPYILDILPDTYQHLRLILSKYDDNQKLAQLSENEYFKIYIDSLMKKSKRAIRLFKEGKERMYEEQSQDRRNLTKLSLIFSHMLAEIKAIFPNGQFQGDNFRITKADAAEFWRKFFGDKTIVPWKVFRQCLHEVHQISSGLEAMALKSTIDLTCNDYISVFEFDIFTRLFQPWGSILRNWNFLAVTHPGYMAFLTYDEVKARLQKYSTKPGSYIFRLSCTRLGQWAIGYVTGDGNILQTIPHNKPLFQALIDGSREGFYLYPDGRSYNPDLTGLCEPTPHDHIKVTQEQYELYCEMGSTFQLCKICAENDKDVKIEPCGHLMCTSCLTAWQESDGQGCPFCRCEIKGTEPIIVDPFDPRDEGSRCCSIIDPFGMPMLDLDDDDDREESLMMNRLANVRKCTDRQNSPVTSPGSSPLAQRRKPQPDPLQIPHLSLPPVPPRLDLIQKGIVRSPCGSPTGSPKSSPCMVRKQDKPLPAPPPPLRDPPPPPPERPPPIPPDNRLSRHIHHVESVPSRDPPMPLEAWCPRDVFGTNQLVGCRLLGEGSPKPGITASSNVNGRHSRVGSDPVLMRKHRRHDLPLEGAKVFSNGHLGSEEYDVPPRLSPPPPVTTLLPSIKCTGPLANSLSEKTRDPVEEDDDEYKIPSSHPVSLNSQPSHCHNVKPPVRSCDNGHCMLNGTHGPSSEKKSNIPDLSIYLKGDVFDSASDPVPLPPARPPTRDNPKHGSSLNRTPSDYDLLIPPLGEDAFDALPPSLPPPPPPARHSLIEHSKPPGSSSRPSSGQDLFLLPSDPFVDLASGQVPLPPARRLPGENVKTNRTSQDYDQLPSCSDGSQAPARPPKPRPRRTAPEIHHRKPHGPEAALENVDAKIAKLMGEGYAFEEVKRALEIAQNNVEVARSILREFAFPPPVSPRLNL
The test can be described thus: MSD-based assay for degradation of Cbl-B in THP-1 cells. Type of test: cell-based. In outline:
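THP-1 cells were treated with compound for 24 h at 37 °C. Cbl-B in lysates was quantified by MSD sandwich immunoassay, with anti-Cbl-B capture antibody at 1 ug/mL and SULFO-TAG anti-rabbit detection. Maximal degradation (Dmax) was binned as A >70%, B 50–70%, C 30–50%, D <30%.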

The mark [1] stands for this setting: Cbl-B degradation, Jurkat cells seeded (heading: THP-1 cells), 24 hours incubation, MSD readout.
Where [2] appears, read: Cbl-B degradation, Jurkat cells seeded (heading: THP-1 cells), 24 hours incubation, MSD readout, read-out: Dmax.

For the compound `Cn1cnnc1CC1(c2cccc(-n3cc4c(C(F)(F)F)cc(CN5CCN(CCN6CCC(CN7CCN(c8ccc9c(c8)CN([C@H]8CCC(=O)NC8=O)C9=O)CC7)CC6)CC5)cn4c3=O)c2)COC1` [Compound 62], the half-maximal degradation concentration (DC50) under setting [1] fell in the range of 30 to 300 nM. Further, under setting [2], the maximal degradation (Dmax) is above 70%. The matching figures for `Cn1cnnc1[C@@H](c1cccc(-n2cc3c(C(F)(F)F)cc(CN4CCN(CCN5CCC(CN6CCN(c7ccc8c(c7)CN([C@@H]7CCC(=O)NC7=O)C8=O)CC6)CC5)CC4)cn3c2=O)c1)C1CCC1` [Compound 63]: 300 to 1000 nM and 30 to 50%. As for `Cn1cnnc1[C@@H](c1cccc(N2Cc3c(cc(CN4CCC(OCCN5CCC(CN6CCN(c7ccc8c(c7)CN([C@@H]7CCC(=O)NC7=O)C8=O)CC6)CC5)CC4)cc3C(F)(F)F)C2=O)c1)C1CCC1` [Compound 65], under setting [1], the 50% degradation concentration (DC50) lay in the range of 300 to 1000 nM. Besides, under setting [2], the Dmax was in the range of 50 to 70%.

Under setting [1], `Cn1cnnc1[C@@H](c1cccc(N2Cc3c(cc(CN4CCC(OCCN5CCC(CN6CCN(c7ccc8c(c7)CN([C@H]7CCC(=O)NC7=O)C8=O)CC6)CC5)CC4)cc3C(F)(F)F)C2=O)c1)C1CCC1` [Compound 66] registered a half-maximal degradation concentration (DC50) of 30 to 300 nM. Besides, the Dmax (THP-1) lay within 50 to 70%. Under setting [1], `CO[C@H]1C[C@](c2cccc(-n3cc4c(C(F)(F)F)cc(CN5CCC(OCCN6CCC(CN7CCN(c8ccc9c(c8)CN([C@@H]8CCC(=O)NC8=O)C9=O)CC7)CC6)CC5)cn4c3=O)c2)(c2nncn2C)C1` [Compound 69] had a half-maximal degradation concentration (DC50) of 300 to 1000 nM. Moreover, the Dmax under setting [2] lay within 30 to 50%.

Under setting [1], `CO[C@H]1C[C@](c2cccc(-n3cc4c(C(F)(F)F)cc(CN5CCC(OCCN6CCC(CN7CCN(c8ccc9c(c8)CN([C@H]8CCC(=O)NC8=O)C9=O)CC7)CC6)CC5)cn4c3=O)c2)(c2nncn2C)C1` [Compound 70] showed a DC50 of 30 to 300 nM. The greatest degradation seen (Dmax) under setting [2] fell in the range of 50 to 70%. The compound `CO[C@H]1C[C@@](c2cccc(-n3cc4c(C(F)(F)F)cc(CN5CCC(OCCN6CCC(CN7CCN(c8ccc9c(c8)CN([C@@H]8CCC(=O)NC8=O)C9=O)CC7)CC6)CC5)cn4c3=O)c2)(c2nncn2C)C1` [Compound 73] yielded a DC50 under setting [1] of 1000 to 10000 nM. In addition, the Dmax under setting [2] fell in the range of 30 to 50%. Regarding `CO[C@H]1C[C@@](c2cccc(-n3cc4c(C(F)(F)F)cc(CN5CCC(OCCN6CCC(CN7CCN(c8ccc9c(c8)CN([C@H]8CCC(=O)NC8=O)C9=O)CC7)CC6)CC5)cn4c3=O)c2)(c2nncn2C)C1` [Compound 74], the DC50 under setting [1] was in the range of 1000 to 10000 nM. The maximal degradation (Dmax) under setting [2] lay in the range of 50 to 70%. `Cn1cnnc1CC1(c2cccc(N3Cc4c(cc(CN5CCC(OCCN6CCC(CN7CCN(c8ccc9c(c8)CN([C@H]8CCC(=O)NC8=O)C9=O)CC7)CC6)CC5)cc4C(F)(F)F)C3=O)c2)COC1` [Compound 76]: the 50% degradation concentration (DC50) under setting [1] was in the range of 30 to 300 nM. The Dmax under setting [2] fell in the range of 50 to 70%. In turn, `Cn1cnnc1[C@@H](c1cccc(-n2cc3c(C(F)(F)F)cc(CN4CCC[C@H](OCc5ccc(CN6CCN(c7ccc8c(c7)CN([C@H]7CCC(=O)NC7=O)C8=O)CC6)cc5)C4)cn3c2=O)c1)C1CCC1` [Compound 82] displayed a DC50 under setting [1] below 30 nM.

`Cn1cnnc1[C@@H](c1cccc(-n2cc3c(C(F)(F)F)cc(CN4CCC[C@@H](OCc5ccc(CN6CCN(c7ccc8c(c7)CN(C7CCC(=O)NC7=O)C8=O)CC6)cc5)C4)cn3c2=O)c1)C1CCC1` (stereo partly shown) [Compound 95]: under setting [1], the 50% degradation concentration (DC50) is 30 to 300 nM. Under setting [1], `Cn1cnnc1CC1(c2cccc(-n3cc4c(C(F)(F)F)cc(CN5CCC[C@@H](OCc6ccc(CN7CCN(c8ccc9c(c8)CN(C8CCC(=O)NC8=O)C9=O)CC7)cc6)C5)cn4c3=O)c2)COC1` (stereo partly shown) [Compound 96] came in with a DC50 of 30 to 300 nM. The maximal degradation (Dmax) under setting [2] was 30 to 50%.

Under setting [1], `Cn1cnnc1[C@@H](c1cccc(-n2cc3c(C(F)(F)F)cc(-c4nccn4CCOCCN4CCC(CN5CCN(c6ccc7c(c6)CN([C@@H]6CCC(=O)NC6=O)C7=O)CC5)CC4)cn3c2=O)c1)C1CCC1` [Compound 97] came in with a DC50 of 1000 to 10000 nM. In addition, under setting [2], the greatest degradation seen (Dmax) lay within 30 to 50%. The matching figures for `Cn1cnnc1CC1(c2cccc(-n3cc4c(C(F)(F)F)cc(-c5nccn5CCOCCN5CCC(CN6CCN(c7ccc8c(c7)CN([C@@H]7CCC(=O)NC7=O)C8=O)CC6)CC5)cn4c3=O)c2)COC1` [Compound 99]: above 10000 nM and below 30%. In the case of `Cn1cnnc1[C@@H](c1cccc(-n2cc3c(C(F)(F)F)cc(CN4CCC(COCc5ccc(CN6CCN(c7ccc8c(c7)CN([C@@H]7CCC(=O)NC7=O)C8=O)CC6)cc5)CC4)cn3c2=O)c1)C1CCC1` [Compound 101], the DC50 under setting [1] is 30 to 300 nM. Also, the Dmax (THP-1) is 50 to 70%. Regarding `Cn1cnnc1[C@@H](c1cccc(-n2cc3c(C(F)(F)F)cc(CN4CCC(COCc5ccc(CN6CCN(c7ccc8c(c7)CN([C@H]7CCC(=O)NC7=O)C8=O)CC6)cc5)CC4)cn3c2=O)c1)C1CCC1` [Compound 102], under setting [1], the DC50 lay within 30 to 300 nM. Moreover, the Dmax under setting [2] is above 70%. The compound `CN(CCO[C@@H]1CCCN(Cc2cc(C(F)(F)F)c3cn(-c4cccc([C@H](c5nncn5C)C5CCC5)c4)c(=O)n3c2)C1)C(=O)c1ccc(N2CCN(c3ccc4c(c3)CN([C@H]3CCC(=O)NC3=O)C4=O)CC2)cc1` [Compound 104] returned a 50% degradation concentration (DC50) under setting [1] of 30 to 300 nM. On to `CN(CCO[C@H]1CCCN(Cc2cc(C(F)(F)F)c3cn(-c4cccc([C@H](c5nncn5C)C5CCC5)c4)c(=O)n3c2)C1)C(=O)c1ccc(N2CCN(c3ccc4c(c3)CN([C@H]3CCC(=O)NC3=O)C4=O)CC2)cc1` [Compound 106], for which the DC50 under setting [1] lay within 300 to 1000 nM. On to `Cn1cnnc1CC1(c2cccc(-n3cc4c(C(F)(F)F)cc(CN5CC(OCCN6CCC(CN7CCN(c8ccc9c(c8)CN(C8CCC(=O)NC8=O)C9=O)CC7)CC6)C5)cn4c3=O)c2)COC1` (stereo not shown) [Compound 113], for which the DC50 under setting [1] is above 10000 nM. Moreover, where the note is “THP-1”, the greatest degradation seen (Dmax) is below 30%. Regarding `Cn1cnnc1[C@@H](c1cccc(-n2cc3c(C(F)(F)F)cc(CN4CC(OCCN5CCC(CN6CCN(c7ccc8c(c7)CN(C7CCC(=O)NC7=O)C8=O)CC6)CC5)C4)cn3c2=O)c1)C1CCC1` (stereo partly shown) [Compound 114], the half-maximal degradation concentration (DC50) under setting [1] is above 10000 nM. In addition, the Dmax under setting [2] is below 30%. In turn, `Cn1cnnc1[C@@H](c1cccc(-n2cc3c(C(F)(F)F)cc(CN4CCC(OCCc5ccc(CN6CCN(c7ccc8c(c7)CN([C@H]7CCC(=O)NC7=O)C8=O)CC6)cc5)CC4)cn3c2=O)c1)C1CCC1` [Compound 116] displayed a DC50 under setting [1] below 30 nM. In addition, under setting [2], the Dmax lay within 50 to 70%. On to `Cn1cnnc1[C@@H](c1cccc(-n2cc3c(C(F)(F)F)cc(CN4CCN(C(=O)CN5CCC(CN6CCN(c7ccc8c(c7)CN([C@@H]7CCC(=O)NC7=O)C8=O)CC6)CC5)CC4)cn3c2=O)c1)C1CCC1` [Compound 129], for which, under setting [1], the 50% degradation concentration (DC50) was above 10000 nM. Moreover, under setting [2], the maximal degradation (Dmax) is below 30%. For `Cn1cnnc1[C@@H](c1cccc(-n2cc3c(C(F)(F)F)cc(CN4CCC(N5CCC(CN6CCN(c7ccc8c(c7)CN([C@H]7CCC(=O)NC7=O)C8=O)CC6)CC5)CC4)cn3c2=O)c1)C1CCC1` [Compound 136], the DC50 under setting [1] lay in the range of 30 to 300 nM.

`CN(C(=O)c1ccc(N2CCN(c3ccc4c(c3)CN([C@@H]3CCC(=O)NC3=O)C4=O)CC2)cc1)C1CCN(Cc2cc(C(F)(F)F)c3cn(-c4cccc([C@H](c5nncn5C)C5CCC5)c4)c(=O)n3c2)CC1` [Compound 137] displayed a DC50 under setting [1] of 30 to 300 nM. Moreover, under setting [2], the Dmax was in the range of 30 to 50%. `CN(C(=O)c1ccc(N2CCN(c3ccc4c(c3)CN([C@H]3CCC(=O)NC3=O)C4=O)CC2)cc1)C1CCN(Cc2cc(C(F)(F)F)c3cn(-c4cccc([C@H](c5nncn5C)C5CCC5)c4)c(=O)n3c2)CC1` [Compound 138]: the 50% degradation concentration (DC50) under setting [1] lay in the range of 300 to 1000 nM. For the same compound, under setting [2], the Dmax was below 30%.

For the compound `Cn1cnnc1[C@@H](c1cccc(-n2cc3c(C(F)(F)F)cc(COCCCN4CCC(CN5CCN(c6ccc7c(c6)CN([C@H]6CCC(=O)NC6=O)C7=O)CC5)CC4)cn3c2=O)c1)C1CCC1` [Compound 150], the DC50 under setting [1] is above 10000 nM. Under setting [2], the maximal degradation (Dmax) is below 30%. `CN(CCOC1CCN(Cc2cc(C(F)(F)F)c3cn(-c4cccc([C@H](c5nncn5C)C5CCC5)c4)c(=O)n3c2)CC1)C(=O)c1ccc(N2CCC(c3ccc4c(c3)CN([C@@H]3CCC(=O)NC3=O)C4=O)CC2)cc1` [Compound 151] gave a half-maximal degradation concentration (DC50) under setting [1] of 30 to 300 nM. For the same compound, the Dmax under setting [2] fell in the range of 50 to 70%.

Regarding `CN(CCOC1CCN(Cc2cc(C(F)(F)F)c3cn(-c4cccc([C@H](c5nncn5C)C5CCC5)c4)c(=O)n3c2)CC1)C(=O)c1ccc(N2CCC(c3ccc4c(c3)CN([C@H]3CCC(=O)NC3=O)C4=O)CC2)cc1` [Compound 152], the DC50 under setting [1] is below 30 nM. Also, under setting [2], the Dmax is above 70%. The compound `CN(C(=O)c1ccc(CN2CCN(c3ccc4c(c3)CN([C@@H]3CCC(=O)NC3=O)C4=O)CC2)cc1)C1CCN(Cc2cc(C(F)(F)F)c3cn(-c4cccc([C@H](c5nncn5C)C5CCC5)c4)c(=O)n3c2)CC1` [Compound 159] had a 50% degradation concentration (DC50) under setting [1] above 10000 nM. For the same compound, the maximal degradation (Dmax) (THP-1) was below 30%.

`CN(C(=O)c1ccc(CN2CCN(c3ccc4c(c3)CN([C@H]3CCC(=O)NC3=O)C4=O)CC2)cc1)C1CCN(Cc2cc(C(F)(F)F)c3cn(-c4cccc([C@H](c5nncn5C)C5CCC5)c4)c(=O)n3c2)CC1` [Compound 160] showed a DC50 under setting [1] below 30 nM. In addition, the maximal degradation (Dmax) under setting [2] was above 70%.

Under setting [1], `Cn1cnnc1[C@@H](c1cccc(-n2cc3c(C(F)(F)F)cc(CN4CCC(CCN5CCC(CC6CCN(c7ccc8c(c7)CN([C@@H]7CCC(=O)NC7=O)C8=O)CC6)CC5)CC4)cn3c2=O)c1)C1CCC1` [Compound 163] had a 50% degradation concentration (DC50) above 10000 nM. Also, the Dmax under setting [2] is below 30%. Consider `Cn1cnnc1[C@@H](c1cccc(-n2cc3c(C(F)(F)F)cc(CN4CCC(CCN5CCC(CC6CCN(c7ccc8c(c7)CN([C@H]7CCC(=O)NC7=O)C8=O)CC6)CC5)CC4)cn3c2=O)c1)C1CCC1` [Compound 164], for which the DC50 under setting [1] was below 30 nM. Also, under setting [2], the greatest degradation seen (Dmax) was above 70%. With `CN(CC1CCN(Cc2cc(C(F)(F)F)c3cn(-c4cccc(C5(Cc6nncn6C)COC5)c4)c(=O)n3c2)CC1)C(=O)c1ccc(N2CCN(c3ccc4c(c3)CN([C@@H]3CCC(=O)NC3=O)C4=O)CC2)cc1` [Compound 165], under setting [1], the DC50 fell in the range of 1000 to 10000 nM. The greatest degradation seen (Dmax) under setting [2] was in the range of 30 to 50%.
